Like-named read-outs stand apart in the source and are kept apart here.
Tests used:
[1] = Whole blood cleavage assay, mouse blood; assay type: in vitro ADME; settings: 10 uM, 37° C., two hours
Experimental: Human whole blood (single donor, batch HBE4534) was obtained from First Link UK Ltd. Mouse whole blood (pool of 10, batch 07-2470) was obtained from Harlan UK. Blood was collected into tubes containing EDTA as anticoagulant and shipped on ice. Blood was used on the day of arrival. In the case of human whole blood incubations were undertaken both on the fresh blood and also after freezing the blood followed by thawing. Control compounds were Lidocaine, Bisacodyl and Simvastatin.
All test compounds were incubated at 10 uM in whole blood at 37° C. At selected time points, 0.1 ml of blood was mixed with 0.3 ml of acetonitrile and vortexed immediately. All samples were centrifuged and supernatant were diluted with same volume of deionized water. […] For 20 sample analysis, mass spectrometry monitored both 17 and 20. […]
The Half life, for the disappearance of 20, was determined according to the relationship: […]
Blood cleavage assays were run to confirm that 20 acts as a prodrug and cleaves to produce compound 17 when incubated with human and mouse blood, as described in the general methods. The compound was incubated in human or mouse blood with samples removed over two hours, and analysed by LC MS/MS for presence of 20 and 17 (see FIG. 6). […] Due to the differing responses of 17 and 20 on mass spectrometry it was not possible to quantify the extent of conversion of 20 to 17.

[2] = In vitro Caco-2 assay for cell permeability; assay type: in vitro ADME; settings: human, Caco-2, pH 7.4, 10 uM, 2 hour incubation
Experimental: (§1) Caco-2 cells (ATCC Cat. # HTB-37) were grown on fibrillar collagen-coated, microporous, polycarbonate membranes in 24-well BioCaot™ insert plates. Following 5-day growth in Eagle's minimum essential medium supplemented with 10% FBS, the cells were exposed to BioCoat Enterocyte Differentiation Medium (BD, Cat. # 05496) for 2 days to induce enterocytic differentiation. Prior to dosing, the transepithelial electric resistance (TEER) of the Caco-2 cells in each well was measured to ensure the quality of the monolayers.
(§2) The stock solutions of test compounds were prepared at 3 mM in DMSO. Dosing solutions were prepared in the permeability assay buffer at 10 μm. The permeability assay buffer was Hank's balanced salt solution containing 10 mM HEPES at a pH of 7.4±0.2.
(§3) The Caco-2 cells were dosed with the test compounds on either apical side (for A-to-B permeation) or basolateral side (for B-to-A permeation) and incubated at 37° C. with 5% CO2 and 90% relative humidity. The testing for each compound was performed in duplicate. After 2 hour incubation, a 20-μL sample was taken from each of dosing solutions and both donor and receiver compartments. To ensure the validity of the Caco-2 assay, propranolol and vinblastine were used as a high- and a low- to medium-permeability positive control, respectively. Vinblastine also served as a P-gp substrate, tested in conjunction with a P-gp inhibitor, verapamil.
(§4) To quantify test compounds by LC/MS/MS, a related geldanamycin-like compound, 17-methoxyethylamino geldanamycin (Schnur et al., 1995), was used as the internal standard. The calculation of permeability of each compound involved only the concentration ratio of the same test compound, the concentration ratio was expressed in the peak area ratio of the test compound to the internal standard. The peak area ratio of each compound was derived by LC-MS/MS.
(§5) The apparent permeability coefficient Papp was calculated as below: […]
(§6) dCr: cumulative concentration in the receiver compartment in M. dt: duration of the assay (i.e., 7200 seconds). Vr: volume of the receiver compartment in cm^3. A: area of the cell monolayer (0.31 cm^2 for 24-well BioCoat™ plate). C0: concentration of the dosing solution in M.
(§7) The in vitro permeability of 20 and the parent 17 were assayed using caco-2 cells, as described in the general methods. All compounds were analysed at a concentration of 10 uM.

Caco-2 cells = test: In vitro Caco-2 assay for cell permeability; assay type: in vitro ADME; settings: 10 uM, 2 hour incubation
Experimental: as §1, §2, §3, §4, §5, §6, §7

[3] = In vivo pharmacokinetic assay in mice; set-up: species or system mouse; settings: female CD-1 mice
Experimental: The test compound was prepared directly in endotoxin free water. A single dose of 10 mg/kg p.o. or 3 mg/kg i.v. was administered to groups of female CD1 mice (3 mice for each compound per time point). Dose volumes were 10 mL/kg for both oral and intravenous administration. At 4 minutes and 0.25, 0.5, 1, 2, 4, 8, 24 hours groups were sacrificed and plasma was collected from each mouse for further analysis. For oral dosing, a single dose of Test Article was administered via oral gavage to the mice. For intravenous dosing, a single dose of Test article was administered intravenously to mice via the tail veins.
The concentration of the relevant compounds in the plasma samples was determined by HPLC with MS detection.
• Mass spectrometer: API 3200 Q Trap triple quadruple mass spectrometer • Liquid chromatography: Agilent 1200/PAL HTC Autosampler • Ionization Mode: Electrospray (may be changed depending on the TA) • Monitoring: Multiple Reaction Monitoring • LC chromatography BetaBastic-8, 50×2.1 mm, 5 μm (may separation: be changed depending on the TA)
Based on the peak area ratios of test article to an internal standard, 17-Methoxyethylamino Geldanamycin (Schnur et al., 1995), concentrations of an unknown sample were obtained by a calibration curve.
Test plasma sample (0.05 ml), analyte free mouse whole serum (0.05 ml), internal standard solution (0.1 ml of 10 mg/mL 17-Methoxyethylamino geldanamycin (Schnur et al., 1995) dissolved in methanol) and acetonitrile (0.5 ml) were pipetted into a 2-mL polypropylene tube and the contents of the tubes were mixed for a minimum of 5 minutes (Vibrax mixer). The tubes were then centrifuged in a microfuge for a minimum of 2 minutes at 12,000 rpm. 0.1 ml of the solvent layer was transferred into a 2-mL polypropylene tube containing 1 mL acid diluent (0.1% formic acid). The tubes were then mixed for a minimum of 5 minutes (Vibrax mixer) and then centrifuged at approximately 3500 rpm for 5 minutes. The extracts were transferred to auto-sampler vials and placed in the auto sampler tray which was set at ambient temperature. The auto-sampler was programmed to inject a 0.005 ml aliquot of each extract onto the analytical column.
In vivo confirmation of the cleavage of 20 to the parent molecule, 17, was carried out as described in the general methods.
Female CD-1 mice were given single doses of 20, either intravenously at 3 mg/kg, or orally at 10 mg/kg. Plasma samples were then collected at 8 time points (0.067, 0.25, 0.5, 1, 2, 4, 8 and 24 h postdose) over a 24-h period. The amounts of 20 and 17 in the samples were then analysed. […] After iv administration, 20 was only detected up to 0.25 hours after dosing, whilst 17 was detected up to 4 hours after dosing.

CO[C@H]1C[C@H](C)Cc2cc(cc(OP(=O)(O)O)c2)NC(=O)/C(C)=C/CC[C@H](C)[C@@H](OC(N)=O)/C(C)=C/[C@H](C)[C@H]1O [Compound 20, 4,5-dihydro-11-O-demethyl-15-demethoxy-18,21-didehydro-21-deoxomacbecin-18-phosphate]
conversion in blood [1]: act as a prodrug and release 17 | efflux ratio at 2 h, 10 uM ([2]; read-out: Efflux ratio Papp(B → A)/Papp(A → B)): 0.7 | Papp A→B at 2 h, 10 uM ([2]; read-out: Permeability Apical to Basolateral Papp(A → B) Mean): 0.49 ×10⁻⁶ cm/s | Papp A→B at 2 h, 10 uM ([2]; read-out: Permeability Apical to Basolateral Papp(A → B) Rep. 1): 0.67 ×10⁻⁶ cm/s | Papp A→B at 2 h, 10 uM ([2]; read-out: Permeability Apical to Basolateral Papp(A → B) Rep. 2): 0.31 ×10⁻⁶ cm/s | Papp B→A at 2 h, 10 uM ([2]; read-out: Permeability Basolateral to Apical Papp(B → A) Mean): 0.35 ×10⁻⁶ cm/s | Papp B→A at 2 h, 10 uM ([2]; read-out: Permeability Basolateral to Apical Papp(B → A) Rep. 1): 0.22 ×10⁻⁶ cm/s | Papp B→A at 2 h, 10 uM ([2]; read-out: Permeability Basolateral to Apical Papp(B → A) Rep. 2): 0.48 ×10⁻⁶ cm/s | Efflux Limited (Caco-2 cells): No | detected in plasma up to (time after dosing) ([3]; single intravenous dose of 20 at 3 mg/kg): up to 0.25 hours | detected in plasma up to (time after dosing) ([3]; single oral dose of 20 at 10 mg/kg): not seen in the plasma

From US20100210597A1, “C21-Deoxy Ansamycin Derivatives as Antitumor Agents” (priority 2007, published 2010)
